In patent US8507554B2 (priority 2006, dated 2013):

Key:
[1] = tested on: Vibrio harveyi BB886; test: Bioluminescence assay of quorum-sensing antagonistic ability with reporter strain Vibrio harveyi BB886; type: cell-based; conditions: 2 hours
Procedure: Quorum-sensing antagonistic ability of 2-(phenylcarbonothioylthio) acetyl homoserine lactone as described in Formula 8 was evaluated using Vibrio harveyi strain BB886 which responds to the AI-1, i.e., N-(3-hydroxybutanoyl)-1-homoserine lactone (3-OH—C4-HSL) as reporter strain. Vibrio harveyi strain BB886 was grown in LBS medium (10 g/L tryptone, 5 g/L yeast extract, 20 g/L NaCl) at 30° C. For the bioluminescence assay, an overnight culture was diluted 100-fold in a sterile AI bioassay (AB) medium (300 mM NaCl, 50 mM MgSO4, 0.2% (w/v) vitamin-free casamino acid, 10 mM potassium phosphate, 1 mM 1-arginine, 1% glycerol; pH 7.5).
After vaporizing chloroform in 4 test tubes at 30° C. for 2 hours, 4.0 mL of the diluted reporter strain culture was added to No. 1˜No. 4 test tubes and incubated at 30° C. Luminescence measurements were performed after 2 hours of incubation using a luminescence meter (Thermo Electron Co.). Bacterial cell density was measured by optical densities at 600 nm (OD600) using a UV spectrophotometer (HP8452A, H.P.). The antagonist activities of 2-(phenylcarbonothioylthio) acetyl homoserine lactone were expressed as a specific luminescence; relative light units/OD600. […]

[2] = tested on: P. aeruginosa; test: Microscopy of P. aeruginosa biofilm grown on specimens for 48 hours; type: cell-based, Pseudomonas aeruginosa; conditions: biofilm grown 48 hours
Procedure: Specimens were set in nutrient flasks containing compounds according to the first exemplary embodiment 1, comparative examples 1 and 2. Biofilm was grown on the specimens for 48 hours. The specimen were examined using microscope. Furthermore, specimens were set in nutrient flasks containing compounds according to exemplary embodiment 6 and comparative example 2. Biofilm on the specimens was grown for 48 hours. The specimens were examined using a microscope.

[3] = tested on: P. aeruginosa; test: Inhibiting ability against biofilm formation: count of adhesive P. aeruginosa on specimen surface after 4 hours; type: cell-based, Pseudomonas aeruginosa; conditions: 10 μmol/L, table shows Comparative example 1 (distilled water) = 100
Procedure: Inhibiting ability against biofilm formation of quorum-sensing antagonist prepared according to exemplary embodiments 1-7 was evaluated.
Specimen was set in nutrient flask containing 10 μmol/L of quorum-sensing antagonist prepared according to exemplary embodiments 1-7 and P. aeruginosa which has strong adhesive character on surface. Numbers of adhesive P. aeruginosa on surface were counted after 4 hours. Distilled water was poured into nutrient flask instead of quorum-sensing antagonist as a comparison example 1. Numbers of adhesive P. aeruginosa on surface were counted after 4 hours. […] Numbers of adhesive P. aeruginosa on surface were counted after 4 hours. […]

[4] = tested on: Agrobacterium tumefaciens A136(pTiA136, pCF218, pCF372); test: LacZ luminescence assay of quorum-sensing antagonistic ability with reporter strain A. tumefaciens A136; type: cell-based; conditions: 0.5 μM autoinducer 3-oxo-C8-HSL plus 5 μM of compound
Procedure: A. tumefaciens A136 (pTiA136, pCF218, and pCF372) was cultured in Luria-Bertani (LB) media with 50 μg/mL spectinomycin and 4.5 μg/mL tetracycline at 30° C. For the bioassay of 2-(phenylcarbonothioylthio) acetyl homoserine lactone, an overnight culture was diluted at 1:100 and incubated up to an optical density of 0.3 at 600 nm (OD600) at 30° C.
No. 1 solution contained 0.5 μM of N-3-oxootanoyl homoserine lactone.
After vaporizing chloroform in 2 test tubes at 30° C. for 2 hours, 4.0 mL of the diluted reporter strain culture was added to No. 1 and No. 2 test tubes.
LacZ quantative analysis for test tubes described above was performed using Tropix-plus kit (Applied Biosystems, USA). Luminescence measurements were performed after 2 hours of incubation using a luminescence meter (Thermo Electron Co.). Bacterial cell density was measured by optical densities at 600 nm (OD600) using a UV spectrophotometer (HP8452A, H. P.). The antagonist activities of 2-(phenylcarbonothioylthio) acetyl homoserine lactone were expressed as a specific luminescence; relative light units/OD600.

[5] = tested on: E. coli DH5α co-transformed by pJN105L (LasR expression plasmid) and pSC11 (lasI::lacZ fusion reporter plasmid); test: LacZ bioassay of quorum-sensing antagonistic ability with co-transformed E. coli DH5α (LasR reporter); type: cell-based; conditions: 1 μM autoinducer 3-oxo-C12-HSL plus 1, 2 or 10 μM of compound
Procedure: Transformant E. coli was cultured in Luria-Bertani (LB) broth with 10 μg/mL gentamicin and 50 μg/mL ampicillin at 37° C.
For LacZ bioassay of 2-(phenylcarbonothioylthio) acetyl homoserine lactone, an overnight culture was diluted at 1:100 and incubated up to an optical density of 0.3 at 600 nm (OD600) at 30° C. Then, 0.4% arabinose was added.
After vaporizing chloroform in 4 test tubes at 37° C. for 2 hours, 4.0 mL of the diluted reporter strain culture was added to No. 1˜No. 4 test tubes.
LacZ Bioassay for test tubes described above was performed using Tropix-plus kit (Applied Biosystems, USA). Luminescence measurements were performed after 2 hours of incubation using a luminescence meter (Thermo Electron Co.). Bacterial cell density was measured by optical densities at 600 nm (OD600) using a UV spectrophotometer (HP8452A, H.P.).
The antagonist activities of 2-(phenylcarbonothioylthio) acetyl homoserine lactone were expressed as a specific luminescence; relative light units/OD600.

| SMILES | % of adhesive P. aeruginosa relative to comparative example [3] | other results |
| --- | --- | --- |
| C[C@@H](O)CC(=O)N[C@H]1CCOC1=O [3-hydroxybutanoylhomoserine lactone, N-(3-hydroxybutanoyl)-1-homoserine lactone, reference compound] | – | luminescence intensity per V. harveyi (relative light units/OD600) ([1]; sample containing only 1 μM autoinducer): relatively high |
| CCCCCC(=O)CC(=O)N[C@H]1CCOC1=O [Autoinducer] | – | P. aeruginosa attached on specimen (microscopic image) [2]: plentifully observed |
| CCCCCCCCCC(=O)CC(=O)N[C@H]1CCOC1=O [Comparative example 2, N-3-oxododecanoylhomoserinelactone, reference compound] | 190% | – |
| O=C(CSc1ccncc1)NC1CCOC1=O (stereo not shown) [Example 1, N-(2-oxo-tetrahydrofuran-3-yl)-2-(pyridin-4-ylthio)acetamide] | 40% | – |
| O=C(CSc1ncccn1)NC1CCOC1=O (stereo not shown) [Example 2] | 51% | – |
| O=C(O)CSCC(=O)NC1CCOC1=O (stereo not shown) [Example 3, 2-(2-oxo-2-(2-oxo-tetrahydrofuran-3-ylamino)ethylthio)acetic acid] | 33% | – |
| O=C(O)CSCCSCC(=O)NC1CCOC1=O (stereo not shown) [Example 4, 2-(2-(2-oxo-2-(2-oxo-tetrahydrofuran-3-ylamino)ethylthio)ethylthio)acetic acid] | 13% | – |
| CSCC(=O)NC1CCOC1=O (stereo not shown) [Example 5, 2-(methylthio)-N-(2-oxo-tetrahydrofuran-3-yl)acetamide] | 30% | – |
| O=C(CSC(=S)c1ccccc1)NC1CCOC1=O (stereo not shown) [Example 6, 2-(phenylcarbonothioylthio)acetyl homoserine lactone] | 20% | luminescence intensity per V. harveyi (relative light units/OD600) ([1]; 1 μM autoinducer 3-OH-C4-HSL plus 1, 5 or 10 μM of compound): decreased remarkably; luminescence intensity per A. tumefaciens A136 (relative light units/OD600) [4]: decreased remarkably; luminescence intensity per co-transformed E. coli DH5α (relative light units/OD600) [5]: decreased remarkably |
| O=C(O)CSC(=S)SCC(=O)NC1CCOC1=O (stereo not shown) [Example 7] | 30% | – |
